Active and inactive are the calls of the source. No cut-off for these calls is given here.
Key:
[1] = Inhibition of malate dehydrogenase at 3 mM
[2] = Inhibition of Aspergillus parasiticus NIAH-26 5'-hydroxyaverantin dehydrogenase

For `CO[C@H]1[C@@H](O)[C@@]2(C)c3ccc4c(c3-c3c2c(coc3=O)[C@@H]1O)CCC4=O` (relative stereo), the Activity [1] was “inactive” and the IC50 [2] was 250 µM.

— ChEMBL document CHEMBL1155649, “A new inhibitor of 5'-hydroxyaverantin dehydrogenase, an enzyme involved in aflatoxin biosynthesis, from Trichoderma hamatum” (J Nat Prod, 2000)
